Reference: patent publication US11447486B2, “2-amino-benzimidazole derivatives and their use as 5-lipoxygenase and/or prostaglandin E synthase inhibitors” (INSTITUT PASTEUR KOREA, priority 2014, dated 2022)
Like-named read-outs stand apart in the source and are kept apart here.

How the values were obtained:
[1] = system: Rat basophilic leukemia (RBL) cells; experiment: LTB4 secretion assay in RBL (rat basophilic leukemia cells); assay type: cell-based
In short: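 Cells seeded 2×10^4/well the day before, then pre-incubated 15 min at 37 °C in EMEM/0.5% FBS with compound (5 nM to 100 uM). Stimulation with 2.5 uM arachidonic acid plus 5 uM A23187 (final) for 10 min at 37 °C; LTB4 in supernatant quantified by EIA.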

human 5-LOX = molecular target: T1, human 5-LOX (Homo sapiens, UniProt P09917); experiment: 5-LOX enzyme activity, fluorescence method (5-HPETE, H2DCFDA); assay type: biochemical; conditions: read-out: 5-LO (IC50)
T1 construct: purchased Cayman 60402; host or cells: insect cells (lysate)
T1 sequence (P09917 1-674): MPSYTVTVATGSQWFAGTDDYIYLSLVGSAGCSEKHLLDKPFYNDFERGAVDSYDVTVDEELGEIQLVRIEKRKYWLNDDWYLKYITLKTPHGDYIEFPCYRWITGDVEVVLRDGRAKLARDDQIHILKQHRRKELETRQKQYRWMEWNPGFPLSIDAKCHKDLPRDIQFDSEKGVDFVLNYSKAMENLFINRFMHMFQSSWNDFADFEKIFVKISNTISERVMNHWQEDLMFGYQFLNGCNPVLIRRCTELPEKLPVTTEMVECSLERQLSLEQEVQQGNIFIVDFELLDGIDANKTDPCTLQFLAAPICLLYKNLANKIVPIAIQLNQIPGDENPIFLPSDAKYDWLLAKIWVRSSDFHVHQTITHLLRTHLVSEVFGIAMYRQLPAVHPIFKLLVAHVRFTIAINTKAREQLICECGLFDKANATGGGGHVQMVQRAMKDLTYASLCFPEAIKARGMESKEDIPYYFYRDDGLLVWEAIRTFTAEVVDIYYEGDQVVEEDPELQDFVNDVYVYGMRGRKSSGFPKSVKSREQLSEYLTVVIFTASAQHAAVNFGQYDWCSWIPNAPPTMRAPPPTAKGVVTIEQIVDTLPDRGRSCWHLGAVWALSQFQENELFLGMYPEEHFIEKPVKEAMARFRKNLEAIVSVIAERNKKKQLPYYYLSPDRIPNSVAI
In short: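 Compound (0.5 nM to 10 uM) pre-incubated 5 min with enzyme; reaction started with ATP (100 uM final) and arachidonic acid (3 uM final). All steps at room temperature, fluorescence read-out.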

Rat whole blood (RWB) = experiment: LTB4 secretion assay in RWB (rat whole blood); assay type: cell-based
In short: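 Heparinized blood from male Sprague Dawley rats (6-9 weeks) diluted 1:1 in RPMI, pre-incubated 15 min at 37 °C with compound (2.5 nM to 50 uM). Stimulated with 10 uM calcium ionophore A23187 for 10 min at 37 °C, stopped with ice-cold PBS; LTB4 in supernatant quantified by EIA.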

SMILES	EC50 ([1]; Rattus norvegicus, RBL)	melting point	IC50 (human 5-LOX)	EC50 (Rat whole blood (RWB); Rattus norvegicus)	EC50 [1]	EC50 (Rat whole blood (RWB))
Nc1ccc2[nH]c(NCc3ccc(S(=O)(=O)Nc4ccc(Cl)cc4)cc3)nc2c1 [Compound 151]	> 20 µM	> 200 °C	< 1 µM	–	–	–
CC(C)(C)c1ccc(Oc2ccc(CNc3nc4cc(N)ccc4[nH]3)cc2)cc1 [Compound 117]	10 to 20 µM	> 207.2 °C	< 1 µM	–	–	–
Cn1c(NCc2ccc(Oc3ccc(F)cn3)cc2)nc2ccc(N)cc21 [Compound 301]	< 10 µM	121.4 to 124.6 °C	< 1 µM	–	–	–
CN(C)c1nc2cc(N)ccc2n1CCOc1ccc(OC(F)(F)F)cc1 [Compound 43]	< 10 µM	60.8 to 61.6 °C	1 to 10 µM	> 20 µM	–	–
Nc1ccc2nc(N)n(Cc3ccc(Oc4ccc(Cl)cc4)cc3)c2c1 [Compound 111]	< 10 µM	156.4 to 158.5 °C	< 1 µM	< 10 µM	–	–
CN(C)c1ccc2[nH]c(NCc3ccc(Oc4ccccc4)cc3)nc2c1 [Compound 98]	< 10 µM	116.8 to 118.7 °C	< 1 µM	< 10 µM	–	–
Cn1c(NCc2ccc(OCc3ccc(Cl)cn3)cc2)nc2ccc(N)cc21 [Compound 314]	10 to 20 µM	96.6 to 100.9 °C	< 1 µM	–	–	–
Fc1ccc(CNc2nc3ccc(N4CCC(Oc5ccc(OC(F)(F)F)cc5)C4)cc3[nH]2)cc1 (stereo not drawn) [Compound 77]	10 to 20 µM	–	< 1 µM	< 10 µM	–	–
CC(Nc1ccc2nc(N(C)C)[nH]c2c1)c1ccc(Oc2ccc(Cl)cn2)cc1 (stereo not drawn) [Compound 152]	< 10 µM	–	< 1 µM	10 to 20 µM	–	–
Cn1c(NCc2ccc(Oc3cnc(N)nc3)cc2)nc2ccc(NC3COC3)cc21 [Compound 369]	< 10 µM	–	< 1 µM	< 10 µM	–	–
COc1nc(Oc2ccc(CNc3nc4ccc(NC5COC5)cc4n3C)cc2)ncc1Cl [Compound 459]	10 to 20 µM	–	< 1 µM	10 to 20 µM	–	–
Nc1ccc2[nH]c(NCc3ccc(-c4ccc(Cl)cn4)cc3)nc2c1 [Compound 164]	< 10 µM	–	< 1 µM	> 20 µM	–	–
Cn1c(NCCOc2ccc(OC(F)(F)F)cc2Cl)nc2ccc(N)cc21 [Compound 56]	< 10 µM	–	< 1 µM	10 to 20 µM	–	–
CCn1c(NCc2ccc(Oc3ncc(C(F)(F)F)cn3)cc2)nc2ccc(Nc3n[nH]c(C)c3Cl)cc21 [Compound 516]	–	–	> 10 µM	–	< 10 µM	< 10 µM
Nc1ccc2[nH]c(NCc3ccc4ccccc4c3)nc2c1 [Compound 81]	< 10 µM	–	< 1 µM	< 10 µM	–	–
Cn1c(NCc2ccc(Oc3ncc(Cl)cn3)cc2)nc2ccc(Nc3cc[nH]n3)cc21 [Compound 450]	< 10 µM	–	< 1 µM	< 10 µM	–	–
Cn1c(NCc2ccc(Oc3ncc(OC(F)(F)F)cn3)cc2)nc2ccc(NC3COC3)cc21 [Compound 412]	< 10 µM	–	< 1 µM	< 10 µM	–	–
Cn1c(NCc2ccc(Oc3ccc(Cl)cn3)cc2)nc2ccc(Nc3cc[nH]n3)cc21 [Compound 449]	< 10 µM	–	< 1 µM	< 10 µM	–	–
Nc1nc2cc(NCCOc3ccc(OC(F)(F)F)cc3)ccc2[nH]1 [Compound 75]	10 to 20 µM	–	< 1 µM	> 20 µM	–	–
Cn1c(NCc2c(F)cc(Oc3ncc(Cl)cn3)cc2F)nc2ccc(N)cc21 [Compound 430]	< 10 µM	–	< 1 µM	< 10 µM	–	–
Cn1c(NCc2ccc(Oc3ccc(Cl)cn3)cc2F)nc2ccc(NC3COC3)cc21 [Compound 273]	< 10 µM	–	< 1 µM	10 to 20 µM	–	–
